Here are results for one molecule from US20070196490A1, “Method of enhancing needleless transdermal powered drug delivery” (priority 1999, published 2007).

Structures are written as SMILES.

The conditions of series [1]: female, human, in vivo.
Method: (§1) In order to evaluate the bioavailability of a peptide drug (calcitonin) administered via particle injection, with and without post administration patch occlusion (relative to subcutaneous injection), the following clinical study was carried out.
(§2) For subcutaneous injections, Miacalcic® calcitonin product was obtained from a commercial source and contained approximately 25 μg (100 IU) of salmon calcitonin (sCT) per ml. For particle injections, the calcitonin composition was formed from sCT at 8% w/w, PVP excipient at 2% w/w, in mannitol. The calcitonin composition was then lyophilized, compressed and then milled to produce particles suitable for use in a particle injection device. […] The 38-53 μm sieve fraction was obtained using a standard mesh screen.
(§3) All particle injections were carried out using a PowderJect® model ND1 needleless syringe fitted with a porous silencer (obtained from PowderJect Technologies, Inc., Fremont, Calif.). […] The devices were operated as described in the '796 patent, using a 60 bar gas source, in order to deliver the sCT particles.
(§4) Occlusive patches were produced by cutting Parafilm® discs which were held in-place by an adhesive dressing. In experimental groups receiving an occlusive dressing, the patch was placed on the skin covering the site of particle administration after sCT delivery and left in-place for the duration of the study (4 hours).
(§5) The overall approach involved measuring pharmacokinetic and pharmacodynamic response parameters following the sCT dose in 24 healthy female subjects. The trial was designed as a single center, open, parallel group trial.
(§6) Blood samples were collected via an indwelling catheter prior to and at 2, 5, 10, 20, 30, 45, 60, 90, 120, 180 and 240 minutes following administration of the calcitonin dose. sCT plasma concentrations were determined by ELISA (PPD Development, VA).
The nature of the next series: clinical. Particulars: female, human, in vivo.

Method for clinical: as §1, §2, §3, §4, §5, §6

For orientation: Tmax means the time at which the peak concentration occurs. On to `CC(C)C[C@H](NC(=O)[C@H](CCCCN)NC(=O)CNC(=O)[C@H](CC(C)C)NC(=O)[C@@H](NC(=O)[C@@H]1CSSC[C@H](N)C(=O)N[C@@H](CO)C(=O)N[C@@H](CC(N)=O)C(=O)N[C@@H](CC(C)C)C(=O)N[C@@H](CO)C(=O)N[C@@H]([C@@H](C)O)C(=O)N1)C(C)C)C(=O)N[C@@H](CO)C(=O)N[C@@H](CCC(N)=O)C(=O)N[C@@H](CCC(=O)O)C(=O)N[C@@H](CC(C)C)C(=O)N[C@@H](Cc1c[nH]cn1)C(=O)N[C@@H](CCCCN)C(=O)N[C@@H](CC(C)C)C(=O)N[C@@H](CCC(N)=O)C(=O)N[C@H](C(=O)N[C@@H](Cc1ccc(O)cc1)C(=O)N1CCC[C@H]1C(=O)N[C@@H](CCCNC(=N)N)C(=O)N[C@H](C(=O)N[C@@H](CC(N)=O)C(=O)N[C@H](C(=O)NCC(=O)N[C@@H](CO)C(=O)NCC(=O)N[C@H](C(=O)N1CCC[C@H]1C(N)=O)[C@@H](C)O)[C@@H](C)O)[C@@H](C)O)[C@@H](C)O` [sCT, salmon calcitonin], for which the “mean bioavailability (BA) relative to the SC injection” value in series [1] was determined as 5.1%. Also, the Tmax was 20 min in “clinical” (sc) and 5 min in “clinical” (topical or ocular, 300 ug).
